Data from ChEMBL document CHEMBL3046469, “Fungicidal Activities of 2-(Substituted Phenoxymethyl)phenyl-2-methoxyiminoacaetamide Derivatives” (1998).

Experiments:
Format in all cases: functional
[1] = tested on: Pseudoperonospora cubensis; assay: Fungicidal activity against Pseudoperonospora cubensis assessed as cucumber downy mildew disease control at 125 ppm foliar application 24 hr before inoculation onto the abaxial(untreated) surface of leaf by preventive manner
Botrytis cinerea [2] = assay: Fungicidal activity against Botryotinia fuckeliana assessed as cucumber gray mold disease control at 7.8 ppm foliar application […] at 22 +/- 2 degC by preventive manner
[3] = tested on: Pseudoperonospora cubensis; assay: Fungicidal activity against Pseudoperonospora cubensis assessed as cucumber downy mildew disease control at 2 ppm foliar application 24 hr before inoculation onto the adaxial(treated) surface of leaf by preventive manner
Pyricularia oryzae [4] = assay: Fungicidal activity against Magnaporthe oryzae assessed as rice blast disease control at 125 ppm foliar application for 24 hr before inoculation at 27 +/- 2 degC measured after 5 days by preventive manner
[5] = tested on: Blumeria graminis f. sp. tritici; assay: Fungicidal activity against Blumeria graminis f. sp. tritici assessed as wheat powdery mildew disease control at 31.3 ppm foliar application for 48 hr before inoculation by preventive manner
Thanatephorus cucumeris [6] = assay: Fungicidal activity against Thanatephorus cucumeris assessed as rice sheath blight disease control at 125 ppm foliar application for 24 hr before inoculation at 26 +/- 2 degC measured after 5 days by preventive manner
Podosphaera fuliginea [7] = assay: Fungicidal activity against Podosphaera fuliginea assessed as cucumber powdery mildew control at 2 ppm foliar application 24 hr before inoculation at 23 +/- 2 degC by preventive manner
[8] = tested on: Pseudoperonospora cubensis; assay: Fungicidal activity against Pseudoperonospora cubensis assessed as cucumber downy mildew disease control at 7.8 ppm foliar application 24 hr before inoculation onto the adaxial(treated) surface of leaf by preventive manner
Pyricularia oryzae [9] = assay: Fungicidal activity against Magnaporthe oryzae assessed as rice blast disease control at 31.3 ppm foliar application for 24 hr before inoculation at 27 +/- 2 degC measured after 5 days by preventive manner
[10] = tested on: Blumeria graminis f. sp. tritici; assay: Fungicidal activity against Blumeria graminis f. sp. tritici assessed as wheat powdery mildew disease control at 7.8 ppm foliar application 48 24 hr before inoculation by preventive manner
Botrytis cinerea [11] = assay: Fungicidal activity against Botryotinia fuckeliana assessed as cucumber gray mold disease control at 31.3 ppm foliar application […] at 22 +/- 2 degC by preventive manner
[12] = tested on: Pseudoperonospora cubensis; assay: Fungicidal activity against Pseudoperonospora cubensis assessed as cucumber downy mildew disease control at 31.3 ppm foliar application 24 hr before inoculation onto the abaxial(untreated) surface of leaf by preventive manner
Podosphaera fuliginea [13] = assay: Fungicidal activity against Podosphaera fuliginea assessed as cucumber powdery mildew control at 7.8 ppm foliar application 24 hr before inoculation at 23 +/- 2 degC by preventive manner
[14] = tested on: Blumeria graminis f. sp. tritici; assay: Fungicidal activity against Blumeria graminis f. sp. tritici assessed as wheat powdery mildew disease control at 2 ppm foliar application for 48 hr before inoculation by preventive manner
Thanatephorus cucumeris [15] = assay: Fungicidal activity against Thanatephorus cucumeris assessed as rice sheath blight disease control at 31.3 ppm foliar application for 24 hr before inoculation at 26 +/- 2 degC measured after 5 days by preventive manner
[16] = tested on: Pseudoperonospora cubensis; assay: Fungicidal activity against Pseudoperonospora cubensis assessed as cucumber downy mildew disease control at 7.8 ppm foliar application 24 hr before inoculation onto the abaxial(untreated) surface of leaf by preventive manner
[17] = tested on: Blumeria graminis f. sp. tritici; assay: Fungicidal activity against Blumeria graminis f. sp. tritici assessed as wheat powdery mildew disease control at 125 ppm foliar application for 48 hr before inoculation by preventive manner
Botrytis cinerea [18] = assay: Fungicidal activity against Botryotinia fuckeliana assessed as cucumber gray mold disease control at 125 ppm foliar application […] at 22 +/- 2 degC by preventive manner
Podosphaera fuliginea [19] = assay: Fungicidal activity against Podosphaera fuliginea assessed as cucumber powdery mildew control at 125 ppm foliar application 24 hr before inoculation at 23 +/- 2 degC by preventive manner
[20] = tested on: Pseudoperonospora cubensis; assay: Fungicidal activity against Pseudoperonospora cubensis assessed as cucumber downy mildew disease control at 125 ppm foliar application 24 hr before inoculation onto the adaxial(treated) surface of leaf by preventive manner
Podosphaera fuliginea [21] = assay: Fungicidal activity against Podosphaera fuliginea assessed as cucumber powdery mildew control at 31.3 ppm foliar application 24 hr before inoculation at 23 +/- 2 degC by preventive manner

Measured: Activity

CNC(=O)/C(=N/OC)c1ccccc1COc1cc(Cl)cc(Cl)c1Cl
90%: Botrytis cinerea [2] | [3] | [5] | Podosphaera fuliginea [7]
<90%: [1] | Pyricularia oryzae [4] | Thanatephorus cucumeris [6]

CNC(=O)/C(=N/OC)c1ccccc1COc1c(F)cccc1F
90%: [8] | Pyricularia oryzae [9] | [10] | Thanatephorus cucumeris [6] | Botrytis cinerea [11] | [12] | Podosphaera fuliginea [13]

CNC(=O)/C(=N/OC)c1ccccc1COc1ccc(C)cc1
90%: [14] | Pyricularia oryzae [9] | Botrytis cinerea [2] | [3] | Podosphaera fuliginea [7]
<90%: [1] | Thanatephorus cucumeris [6]

CNC(=O)/C(=N/OC)c1ccccc1COc1cc(Cl)cc(Cl)c1
<90%: Thanatephorus cucumeris [6]
90%: Botrytis cinerea [2] | [3] | Pyricularia oryzae [4] | [10] | [12] | Podosphaera fuliginea [13]

CNC(=O)/C(=N/OC)c1ccccc1COc1cc(Cl)c(Cl)cc1Cl
90%: Pyricularia oryzae [9] | Botrytis cinerea [2] | Thanatephorus cucumeris [15] | [3] | [5] | Podosphaera fuliginea [7] | [12]

CNC(=O)/C(=N/OC)c1ccccc1COc1cccc(Cl)c1Cl
<90%: [1] | Thanatephorus cucumeris [6]
90%: Pyricularia oryzae [9] | [3] | [5] | Botrytis cinerea [11] | Podosphaera fuliginea [7]

CNC(=O)/C(=N/OC)c1ccccc1COc1ccccc1F
90%: [8] | Pyricularia oryzae [9] | Botrytis cinerea [2] | Thanatephorus cucumeris [6] | [16] | Podosphaera fuliginea [13]

CNC(=O)/C(=N/OC)c1ccccc1COc1ccc(Br)cc1
90%: [14] | [8] | Pyricularia oryzae [9] | Botrytis cinerea [2] | [12] | Podosphaera fuliginea [13]
<90%: Thanatephorus cucumeris [6]

CNC(=O)/C(=N/OC)c1ccccc1COc1cc(C)c(C)cc1Cl
<90%: [1] | Thanatephorus cucumeris [6]
90%: Botrytis cinerea [2] | [3] | Pyricularia oryzae [4] | Podosphaera fuliginea [13] | [17]

CNC(=O)/C(=N/OC)c1ccccc1COc1cccc(F)c1F
90%: [14] | [8] | Botrytis cinerea [2] | Podosphaera fuliginea [13]
<90%: [1] | Pyricularia oryzae [4] | Thanatephorus cucumeris [6]

C#CCOc1ccccc1OCc1ccccc1/C(=N\OC)C(=O)NC
<90%: [1] | Botrytis cinerea [18] | Thanatephorus cucumeris [6] | [17]
90%: Podosphaera fuliginea [19] | Pyricularia oryzae [4] | [20]

CNC(=O)/C(=N/OC)c1ccccc1COc1cc(C)c(Cl)c(C)c1
90%: [1] | Pyricularia oryzae [9] | Botrytis cinerea [2] | [3] | [10] | Podosphaera fuliginea [13]
<90%: Thanatephorus cucumeris [6]

CNC(=O)/C(=N/OC)c1ccccc1COc1cc(F)cc(F)c1
90%: [14] | [8] | Pyricularia oryzae [9] | Botrytis cinerea [2] | Thanatephorus cucumeris [6] | [12] | Podosphaera fuliginea [13]

CNC(=O)/C(=N/OC)c1ccccc1COc1c(C)cc(C)cc1C
90%: [8] | Podosphaera fuliginea [19] | Pyricularia oryzae [4] | Botrytis cinerea [11] | [17]
<90%: [1] | Thanatephorus cucumeris [6]

CNC(=O)/C(=N/OC)c1ccccc1COc1cc(C)cc(C)c1
90%: [14] | Pyricularia oryzae [9] | Botrytis cinerea [2] | Thanatephorus cucumeris [15] | [3] | Podosphaera fuliginea [13]
<90%: [1]

CNC(=O)/C(=N/OC)c1ccccc1COc1ccc(C(=O)c2ccccc2)cc1
<90%: [1] | Podosphaera fuliginea [19] | Thanatephorus cucumeris [6]
90%: Botrytis cinerea [2] | Pyricularia oryzae [4] | [17]

CNC(=O)/C(=N/OC)c1ccccc1COc1ccc(F)cc1
90%: [14] | [8] | Botrytis cinerea [2] | Pyricularia oryzae [4] | Thanatephorus cucumeris [6] | [12] | Podosphaera fuliginea [13]

CNC(=O)/C(=N/OC)c1ccccc1COc1c(C)ccc(C)c1C
90%: [1] | Pyricularia oryzae [4]
<90%: Botrytis cinerea [18] | Podosphaera fuliginea [19] | Thanatephorus cucumeris [6] | [20] | [17]

C#CCOc1ccc(OCc2ccccc2/C(=N\OC)C(=O)NC)cc1
90%: [8] | Pyricularia oryzae [9] | Botrytis cinerea [2] | [12] | Podosphaera fuliginea [13] | [17]
<90%: Thanatephorus cucumeris [6]

C#CCOc1cccc(OCc2ccccc2/C(=N\OC)C(=O)NC)c1
<90%: Thanatephorus cucumeris [6]
90%: [1] | [3] | Podosphaera fuliginea [19] | Pyricularia oryzae [4] | Botrytis cinerea [11] | [17]

CNC(=O)/C(=N/OC)c1ccccc1COc1c(C)cccc1C
90%: Botrytis cinerea [18] | Podosphaera fuliginea [19] | Pyricularia oryzae [4] | [17]
<90%: [1] | Thanatephorus cucumeris [6] | [20]

CNC(=O)/C(=N/OC)c1ccccc1COc1cccc(Br)c1
90%: Botrytis cinerea [2] | [3] | Pyricularia oryzae [4] | [16] | Podosphaera fuliginea [13]
<90%: Thanatephorus cucumeris [6]

CNC(=O)/C(=N/OC)c1ccccc1COc1ccccc1-c1ccccc1
90%: Podosphaera fuliginea [19] | Pyricularia oryzae [4] | [20]
<90%: [1] | Botrytis cinerea [18] | Thanatephorus cucumeris [6] | [17]

CNC(=O)/C(=N/OC)c1ccccc1COc1cccc(Cl)c1
90%: Pyricularia oryzae [9] | Botrytis cinerea [2] | Thanatephorus cucumeris [15] | [3] | [10] | [16] | Podosphaera fuliginea [13]

CNC(=O)/C(=N/OC)c1ccccc1COc1cccc(F)c1
90%: Podosphaera fuliginea [21] | [8] | Pyricularia oryzae [9] | [10] | Thanatephorus cucumeris [6] | Botrytis cinerea [11] | [16]

CNC(=O)/C(=N/OC)c1ccccc1COc1cc(F)ccc1F
90%: [14] | Pyricularia oryzae [9] | Botrytis cinerea [2] | Thanatephorus cucumeris [15] | [3] | [16] | Podosphaera fuliginea [13]

CNC(=O)/C(=N/OC)c1ccccc1COc1cccc([N+](=O)[O-])c1
90%: [8] | Pyricularia oryzae [4] | [17]
<90%: [1] | Podosphaera fuliginea [19] | Thanatephorus cucumeris [6]

CNC(=O)/C(=N/OC)c1ccccc1COc1ccc(Cl)c(Cl)c1
<90%: Thanatephorus cucumeris [6]
90%: [8] | Pyricularia oryzae [9] | Botrytis cinerea [2] | [10] | Podosphaera fuliginea [7] | [12]

CNC(=O)/C(=N/OC)c1ccccc1COc1ccccc1Cl
90%: [14] | [1] | [8] | Pyricularia oryzae [9] | Botrytis cinerea [2] | Thanatephorus cucumeris [6] | Podosphaera fuliginea [13]

CNC(=O)/C(=N/OC)c1ccccc1COc1ccc(C(F)(F)F)cc1
90%: [8] | Pyricularia oryzae [9] | Botrytis cinerea [2] | [10] | [16] | Podosphaera fuliginea [13]
<90%: Thanatephorus cucumeris [6]

CNC(=O)/C(=N/OC)c1ccccc1COc1ccc(/C=C\c2ccccc2)cc1
<90%: [1] | Botrytis cinerea [18] | Podosphaera fuliginea [19] | Pyricularia oryzae [4] | Thanatephorus cucumeris [6]
90%: [17]
